This series is described as follows: pH-dependent solubility of the active ingredient. The note with it: acidic range.

As for `CC(=O)Oc1ccccc1C(=O)O` [Acetylsalicylic acid, acetylsalicylic acid], the Solubility amounted to 0.45%.

Values taken from patent publication US7510729B2, “Combination of polyvinyl acetate with water-insoluble, acid-insoluble, or alkali-insoluble polymers used for the production of film coatings with highly controlled release and high stability” (BASF Aktiengesellschaft, priority 2002, dated 2009).
